The values below come from US7368279B2, “Three dimensional bioengineered smooth muscle tissue and sphincters and methods therefor” (The Regents of The University of Michigan, priority 2004, dated 2008).

In the test the test system is bioengineered IAS rings. Put plainly: Isometric force (contraction/relaxation) of bioengineered IAS rings. The test is classed as cell-based, rabbit. As for the experimental part:
Excitability and contractility of bioengineered IAS rings was measured using techniques adapted from previous work (Dennis et al., In Vitro Cellular & Developmental Biology Animal 36: 327-335, 2000. Dennis et al., American Journal of Physiology Cell Physiology 280: C288-C295, 2001). The diameter of the sphincter rings was measured and used to calculate cross-sectional area (CSA). The bioengineered sphincters were separated from their molds using forceps (FIG. 1 Panel E) and the minimum ring diameter was measured using a calibrated eyepiece and a 5× or 10× objective lens on an inverted microscope (Zeiss Axiovert 25, Thornwood, N.Y.). The cross section was circular, and therefore the CSA was calculated using the measured diameter. To measure the passive baseline force, the differentiation media in the plate containing the bioengineered sphincter was replaced with 37° C. Krebs solution (NaCl (119 mM), KCl (4.6 mM), NaHCO3 (15 mM), CaCl2 (1.5 mM), MgCl2 (1.2 mM), […], and glucose (11 mM)) and the plate was placed on a heated aluminum platform, which maintained a temperature of 37° C. until the testing was complete. For contractility measurements, one end of the bioengineered sphincter was anchored by a stainless steel pin (10 mm×0.1 mm diameter) to the PDMS substrate within the plate, while another stainless steel pin was bent in the shape of a hook and attached by canning wax to a force transducer (resolution of 1.4 μN and range of 2mN) as previously described (Dennis et al., In Vitro Cellular & Developmental Biology Animal 36: 327-335, 2000, Macpherson et al., J Physiol 500: 523-533, 1997) and as depicted in FIG. 1 (Panels F and G). The bioengineered sphincter was stretched approximately 50% of its resting length using a three-axis micromanipulator. The ring was allowed to sit for 20 minutes in order to reestablish a stable baseline level of force (Pb), which was measured as the average baseline passive force preceding stimulation. All force measurements were collected at 100 samples/second for 60 seconds and recorded using a computer with LabVIEW data acquisition software (National Instruments, Austin, Tex.). A median filter of rank 2 was applied to all raw force data before being stored to minimize digitization noise without causing a phase delay for rapidly changing forces. The peak isometric force (ΔP) was determined by subtracting the Pb from the total force values. Specific force (sΔP) was calculated by dividing ΔP by the CSA. Data analysis was done using LabVIEW and Microsoft Excel software programs. Each measurement was repeated at least three times and the mean value was recorded. Contractions were induced in the rings by the addition of acetylcholine. Dose-response relationships of acetylcholine were investigated in the range of 10^−6M to 10^−10M. Incremental doses of acetylcholine were added after the maximal response of the preceding concentration and the establishment of a new baseline. Relaxation response in the rings was induced by the addition of 8-Bromoadenosine 3′:5′-Cyclic Monophosphate (8-br-cAMP). Maximal relaxation was achieved after approximately 4 minutes and therefore relaxation measurements are collective of four consecutive 1-minute data recordings.

Molecules are shown by their SMILES. Entries after “also recorded” stand apart in the source; their conditions may differ.

Consider `Nc1ncnc2c1nc(Br)n2[C@@H]1O[C@@H]2COP(=O)(O)O[C@H]2[C@H]1O` [8-br-cAMP, 8-Bromoadenosine 3′:5′-Cyclic Monophosphate], for which, for the setting “10^−5 M 8-br-cAMP added after 10^−6 M acetylcholine, Krebs buffer”, the “relaxation of acetylcholine-induced contraction” value was “rapid relaxation; also recorded: immediate relaxation”. Also, the “ΔP (relaxation response)” value (10^−5 M 8-br-cAMP, 4 minutes, 0 Ca2+/2 mM EGTA Krebs) is listed as −23±4 μN. Moreover, for the setting “10^−5 M 8-br-cAMP, 4 minutes, Krebs buffer”, the “average ΔP (relaxation from basal tone)” value is −16.3±2.0 μN.
